# “Also recorded” adds a separate entry of the source.
# Tests used:
# [1] = Aqueous kinetic solubility; format: physicochemical; settings: for solubility at 2 h: aqueous buffer, kinetic from dmso stock, free form, deionized water pH 7.4, 1% DMSO; for Fold increase, Free form: solubility of free form compared to MP2; for solubility: thermodynamic from solid, HCl salt in deionized water
# Protocol: The aqueous kinetic solubility was determined by preparing a 20 mM DMSO stock solution of test compounds and incubating an aliquot of this solution in deionized water at pH 7.4 to set a 1% final concentration of DMSO. In the case of HCl salt compounds, 1–2 mg of compound was weighed and dissolved in deionized water to yield an approximately 10 mg/mL solution. After initial mixing using brief vortexing and sonication, samples were equilibrated by shaking for 2 h at room temperature. Suspensions or solutions with visible particles were filtered through 0.22 µm PVDF membrane filters. The dissolved drug concentration was analyzed using UPLC-MS. To determine the solubility of the HCl salt, 1 mg of compound was weighed into a 2 mL glass tube, and a fixed volume of deionized water was added to yield an approximately 10 mg/mL solution. The solution was equilibrated by shaking for 24 h at room temperature. After equilibration, the vials were visually examined. If a clear solution was obtained, solubility was reported as >mg/mL.
# M. avium in murine BMDMs = test: Intracellular anti-MAC activity in infected BMDMs, M. avium; format: cell-based, Mycobacterium avium
# Protocol: (§1) BMDMs were obtained from 6-week-old female BALB/c mice. Bone marrow cells were differentiated into BMDMs using Dulbecco’s Modified Eagle Medium (Biowest) supplemented with 10% fetal bovine serum (Biowest) and 10% L929 cell supernatant as previously described ([58]).
# (§2) BMDMs were seeded at 4 × 10^5 cells/mL in a 48-well plate and incubated overnight at 37°C. MAC strains were infected at a multiplicity of infection of 3 for 4 h and washed with DPBS twice. The cells were then cultured in the absence or presence of drugs in triplicate wells for 72 h. After incubation, the cells were lysed with 0.05% Triton X-100, and the cell lysates serially diluted with DPBS were spotted on 7H10 agar plates supplemented with OADC to count the number of viable bacteria. Colonies were enumerated after 7 d of incubation at 37°C, and the values are reported as the mean CFU ± standard deviation (SD) per mL. All experiments were repeated at least three times independently.
# MAC in murine BMDMs = test: Intracellular anti-MAC activity in infected BMDMs, summary statements for MAC; format: cell-based, Mycobacterium avium complex; settings: for intracellular activity in BMDMs infected with macrolide-resistant MAC clinical isolates: 10 µg/mL, 72 h (Fig. 5 and 6)
# Protocol: as §1, §2
# M. avium ATCC 700898 = settings: for drug-drug interaction with CLR: synergism FICI ≤0.5, additive 0.5 < FICI ≤ 1, indifferent 1 < FICI ≤ 4, antagonistic FICI >4
# Protocol: (§3) To evaluate the efficacy of the combination of agent A and agent B, a fractional inhibitory concentration (FIC) index was calculated as follows: FICI = (FIC of agent A) + (FIC of agent B) = (MIC of agent A in combination/MIC of agent A alone) + (MIC of agent B in combination/MIC of agent B alone). Synergism is defined as FICI ≤0.5, additive as 0.5 < FICI ≤ 1, indifferent as 1 < FICI ≤ 4, and antagonistic as FICI >4. The cultured bacteria were diluted to a 0.005 OD600 in 7H9 broth containing 5% OADC, and the antimicrobial agents were prepared by serial dilutions to a final concentration of 0.03–4 μg/mL. For the evaluation of inhibitory concentrations, the plates were incubated at 37°C for 5–7 d. Then, MIC values were assessed by REMA, and the FICI was calculated.
# [2] = system: M. intracellulare ATCC 13950; settings: for drug-drug interaction with CLR: synergism FICI ≤0.5, additive 0.5 < FICI ≤ 1, indifferent 1 < FICI ≤ 4, antagonistic FICI >4
# Protocol: as §3
# [3] = system: macrolide-resistant M. avium; test: MIC by REMA, macrolide-resistant M. avium strains
# Text: (§4) Reference strains were purchased from the American Type Culture Collection (ATCC; Manassas, VA, USA). All clinical MAC isolates, including macrolide-susceptible and macrolide-resistant strains, were kindly provided by Samsung Medical Center (SMC; Seoul, South Korea) and Asan Medical Center (AMC; Seoul, South Korea). All strains were cultivated in Middlebrook 7H9 liquid broth (Difco Laboratories, Detroit, MI) supplemented with 10% oleic acid-albumin-dextrose-catalase (OADC) or plated on Middlebrook 7H10 agar (Difco Laboratories) with 10% OADC enrichment at 37°C.
# (§5) The MICs of all the reagents were determined using the REMA method based on guidelines by the Clinical and Laboratory Standards Institute ([57]). […] The cultures were diluted to an OD600 = 0.001 in 7H9 broth with 5% OADC. […] Two controls (broth only and bacteria only) were incubated to check for other contamination (broth only) and the growth of tested bacteria (bacteria only).
# (§6) PCR amplification and sequencing for CLR were based on 23S rRNA. The primers and PCR conditions were as reported previously ([59]). PCR was carried out in a final volume of 20 µL and contained EzPCR Basic 5 × premix (ELPIS, Daejeon, South Korea), 13 µL of sterile dH2O, 1 µL of each forward and reverse primer, and 1 µL of template DNA. The PCR products were run on 1% agarose gels and purified using a NEXprep Gel/PCR Purification Mini Kit (Geneslabs, Gyeonggi, South Korea) for DNA cleanup. Purified PCR products were sequenced by Sanger sequencing in Bionics (Seoul, South Korea) with their gene-specific forward and reverse primers. Sequences obtained from Bionics were subjected to BLAST searches to compare nucleotide sequences with reference strains.
# M. avium = test: MIC by resazurin microtiter assay (REMA), M. avium strains
# Protocol: (§7) Reference strains were purchased from the American Type Culture Collection (ATCC; Manassas, VA, USA). […] All strains were cultivated in Middlebrook 7H9 liquid broth (Difco Laboratories, Detroit, MI) supplemented with 10% oleic acid-albumin-dextrose-catalase (OADC) or plated on Middlebrook 7H10 agar (Difco Laboratories) with 10% OADC enrichment at 37°C.
# as §5
# [4] = system: macrolide-resistant M. intracellulare; test: MIC by REMA, macrolide-resistant M. intracellulare strains; settings: Mycobacterium intracellulare
# Text: as §4, §5, §6
# M. intracellulare = test: MIC by resazurin microtiter assay (REMA), M. intracellulare strains
# Protocol: as §7, §5
# [5] = system: macrolide-resistant M. avium clinical isolates in BMDMs; test: Intracellular activity in BMDMs, macrolide-resistant M. avium clinical isolates; format: cell-based, Mycobacterium avium; settings: five macrolide-resistant M. avium clinical isolates, 10 µg/mL, 72 h (Fig. 5)
# Protocol: as §1, §2
# [6] = combination with CLR, synergism FICI ≤0.5, additive 0.5 < FICI ≤ 1
# [7] = M. avium (SMC#1216), 23S rRNA A2058/A2059 C/A
# [8] = Mycobacterium avium, M. avium (SMC#420), 23S rRNA A2058/A2059 C/A
# [9] = Mycobacterium avium, M. avium (SMC#422), 23S rRNA A2058/A2059 A/G
# [10] = Mycobacterium avium, M. avium (SMC#1213), 23S rRNA A2058/A2059 T/A
# [11] = Mycobacterium avium, M. avium (SMC#6)
# [12] = Mycobacterium avium, M. avium (SMC#1637)
# [13] = M. intracellulare (AMC#24), 23S rRNA A2058/A2059 G/A
# [14] = M. intracellulare (SMC#104), 23S rRNA A2058/A2059 G/A
# [15] = M. intracellulare (SMC#400), 23S rRNA A2058/A2059 C/A
# [16] = M. intracellulare (SMC#414), 23S rRNA A2058/A2059 A/G
# [17] = M. intracellulare (SMC#418), 23S rRNA A2058/A2059 G/A
# [18] = Mycobacterium avium, ATCC700898
# [19] = Mycobacterium intracellulare, ATCC13950, M. intracellulare (ATCC 13950), reference strain
# [20] = Mycobacterium intracellulare, M. intracellulare (SMC#8)
# [21] = Mycobacterium intracellulare, M. intracellulare (SMC#12)
SMILES,solubility at 2 h [1] [µg/mL],"Fold increase, Free form [1]",solubility [1] [µg/mL],intracellular activity in BMDMs infected with macrolide-resistant MAC clinical isolates (MAC in murine BMDMs),drug-drug interaction with CLR (M. avium ATCC 700898),drug-drug interaction with CLR [2],"MIC [3, 7] [µg/mL]",MIC ([3]; Mycobacterium avium) [µg/mL],"MIC [3, 8] [µg/mL]","MIC [3, 9] [µg/mL]","MIC [3, 10] [µg/mL]",MIC (M. avium; [11]) [µg/mL],MIC (M. avium; [12]) [µg/mL],"MIC [4, 13] [µg/mL]","MIC [4, 14] [µg/mL]","MIC [4, 15] [µg/mL]","MIC [4, 16] [µg/mL]",MIC (M. intracellulare; M. intracellulare (SMC#831)) [µg/mL],MIC (M. intracellulare; M. intracellulare (SMC#2087)) [µg/mL],MIC (M. intracellulare; Mycobacterium intracellulare) [µg/mL],further results
C/C=C1\NC(=O)[C@H]([C@@H](C)O)NC(=O)c2csc(n2)-c2ccc(-c3nc(-c4nc(C(=O)NC5(C(=O)NCCCN6C(=O)CNC6=O)CC5)cs4)cs3)nc2-c2csc(n2)[C@H]([C@@H](C)O)NC(=O)c2csc(n2)[C@H](C(C)C)NC(=O)c2csc1n2 [AJ-039],2.98,×43 fold,25.2,relatively little activity,additive effect,additive effect,0.125,0.125,0.5,4,2,0.125,0.125,0.125,0.125,0.125,0.125,0.125,0.125,0.125,"Fold increase, HCl salt ([1]; solubility of HCl salt compared to MP2): ×360 fold; CFUs in BMDMs, drug alone (M. avium in murine BMDMs; M. avium SMC#7 (Fig. 2C)): did not reduce CFUs; intracellular activity of combination with CLR compared to CLR alone (M. avium in murine BMDMs; M. avium SMC#7, each drug 10 µg/mL, 72 h): not significant compared to that of CLR alone; FICI (M. avium ATCC 700898; [6]): 0.54; FICI [2, 6]: 0.56; MIC (M. avium; Mycobacterium avium, ATCC700898, M. avium (ATCC 700898), reference strain): 0.125 µg/mL; MIC (M. avium; Mycobacterium avium, M. avium (CP000479.1), reference strain): 0.125 µg/mL; MIC (M. avium; Mycobacterium avium, M. avium (SMC#7)): 0.125 µg/mL; MIC [4, 17]: 0.125 µg/mL; MIC (M. intracellulare; M. intracellulare (SMC#8)): 0.125 µg/mL; MIC (M. intracellulare; M. intracellulare (SMC#9)): 0.125 µg/mL; MIC (M. intracellulare; M. intracellulare (SMC#12)): 0.125 µg/mL; MIC (M. intracellulare; M. intracellulare (SMC#699)): 0.125 µg/mL; MIC (M. intracellulare; Mycobacterium intracellulare, ATCC13950): 0.125 µg/mL"
C/C=C1\NC(=O)[C@H]([C@@H](C)O)NC(=O)c2csc(n2)-c2ccc(-c3nc(-c4nc(C(=O)NC5(C(=O)NCCN6CCN(C[C@@H](O)CO)CC6)CC5)cs4)cs3)nc2-c2csc(n2)[C@H]([C@@H](C)O)NC(=O)c2csc(n2)[C@H](C(C)C)NC(=O)c2csc1n2 [AJ-206],102,"×1,457 fold",> 10000,significant decrease in CFUs,strongest synergistic effect; also recorded: Synergistic effects,relatively weak but synergistic effect; also recorded: Synergistic effects,0.125,0.125,0.5,1,1,0.125,0.125,0.125,0.125,–,0.125,0.125,0.125,0.125,"intracellular growth of MAC in BMDMs (MAC in murine BMDMs; MAC-infected BMDMs, 72 h (Fig. 2)): remarkably inhibited the intracellular growth of MAC to a similar degree as CLR; also recorded: significantly reduced the number of MAC CFUs inside macrophages; intracellular bacterial growth in BMDMs [5]: notably inhibited intracellular bacterial growth; MIC (M. avium; M. avium (SMC#7)): 0.5 µg/mL; MIC (M. avium; Mycobacterium avium): 0.5 µg/mL; MIC (M. avium; [18]): 0.5 µg/mL; MIC (M. intracellulare; [19]): 0.5 µg/mL; MIC (M. intracellulare; Mycobacterium intracellulare, M. intracellulare (SMC#7)): 0.25 µg/mL; MIC (M. intracellulare; [20]): 0.5 µg/mL; MIC (M. intracellulare; [21]): 0.5 µg/mL; MIC (M. intracellulare; Mycobacterium intracellulare, M. intracellulare (SMC#699)): 0.5 µg/mL"
"CC[C@H]1OC(=O)[C@H](C)[C@@H](O[C@H]2C[C@@](C)(OC)[C@@H](O)[C@H](C)O2)[C@H](C)[C@@H](O[C@@H]2O[C@H](C)C[C@H](N(C)C)[C@H]2O)[C@](C)(OC)C[C@@H](C)C(=O)[C@H](C)[C@@H](O)[C@]1(C)O [CLR, clarithromycin, reference compound]",–,–,–,resistance,–,–,–,–,> 64,> 64,> 64,0.125,0.125,> 64,> 64,> 64,> 64,0.125,0.125,0.125,"MIC ([3]; Mycobacterium avium, M. avium (SMC#417), 23S rRNA A2058/A2059 C/A): > 64 µg/mL; MIC ([3]; Mycobacterium avium, M. avium (SMC#1216), 23S rRNA A2058/A2059 C/A): > 64 µg/mL; MIC (M. avium; M. avium (SMC#7)): 0.5 µg/mL; MIC (M. avium; Mycobacterium avium): 0.5 µg/mL; MIC (M. avium; [18]): 0.5 µg/mL; MIC [4, 17]: > 64 µg/mL; MIC (M. intracellulare; M. intracellulare (SMC#9)): 0.125 µg/mL; MIC (M. intracellulare; M. intracellulare (SMC#699)): 0.125 µg/mL; MIC (M. intracellulare; [19]): 0.25 µg/mL; MIC (M. intracellulare; [20]): 0.25 µg/mL; MIC (M. intracellulare; [21]): 0.25 µg/mL"
"COc1nc2ccc(Br)cc2cc1[C@@H](c1ccccc1)[C@@](O)(CCN(C)C)c1cccc2ccccc12 [bedaquiline, reference compound]",–,–,–,–,synergistic effects were not observed,synergistic effects were not observed,–,–,–,–,–,–,–,–,–,–,–,–,–,–,–

# Reference: paper PMC10580953, “In vitro and intracellular activities of novel thiopeptide derivatives against macrolide-susceptible and macrolide-resistant Mycobacterium avium complex” (Microbiology Spectrum, 2023)
